Holding throughout (assay type): ADME
Series [1] concerns the target T1, Cytochrome P450 2B6 (Homo sapiens, UniProt P20813).
T1 sequence (P20813 whole entry): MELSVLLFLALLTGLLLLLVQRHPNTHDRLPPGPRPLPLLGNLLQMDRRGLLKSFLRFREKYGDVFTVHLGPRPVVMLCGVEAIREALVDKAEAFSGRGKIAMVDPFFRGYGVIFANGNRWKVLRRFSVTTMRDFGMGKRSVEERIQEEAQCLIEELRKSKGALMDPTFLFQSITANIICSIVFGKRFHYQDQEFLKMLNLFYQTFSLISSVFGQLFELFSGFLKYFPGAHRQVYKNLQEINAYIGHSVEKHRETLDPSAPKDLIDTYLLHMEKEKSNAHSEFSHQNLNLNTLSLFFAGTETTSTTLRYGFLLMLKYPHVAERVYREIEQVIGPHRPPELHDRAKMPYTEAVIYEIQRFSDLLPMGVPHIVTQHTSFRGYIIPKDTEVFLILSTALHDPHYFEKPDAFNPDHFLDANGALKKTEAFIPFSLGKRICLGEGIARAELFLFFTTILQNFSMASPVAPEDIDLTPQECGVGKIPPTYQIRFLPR
The experiment in a line: Drug metabolism assessed as human recombinant CYP2B6-mediated 17-hydroexemestane formation at 10 uM after 10 mins by Michaelis-Menten saturation curve analysis. The settings on record: recombinant enzyme.

Another series concerns the target T2, Cytochrome P450 1A1 (Homo sapiens, UniProt P04798).
T2 sequence (P04798 whole entry): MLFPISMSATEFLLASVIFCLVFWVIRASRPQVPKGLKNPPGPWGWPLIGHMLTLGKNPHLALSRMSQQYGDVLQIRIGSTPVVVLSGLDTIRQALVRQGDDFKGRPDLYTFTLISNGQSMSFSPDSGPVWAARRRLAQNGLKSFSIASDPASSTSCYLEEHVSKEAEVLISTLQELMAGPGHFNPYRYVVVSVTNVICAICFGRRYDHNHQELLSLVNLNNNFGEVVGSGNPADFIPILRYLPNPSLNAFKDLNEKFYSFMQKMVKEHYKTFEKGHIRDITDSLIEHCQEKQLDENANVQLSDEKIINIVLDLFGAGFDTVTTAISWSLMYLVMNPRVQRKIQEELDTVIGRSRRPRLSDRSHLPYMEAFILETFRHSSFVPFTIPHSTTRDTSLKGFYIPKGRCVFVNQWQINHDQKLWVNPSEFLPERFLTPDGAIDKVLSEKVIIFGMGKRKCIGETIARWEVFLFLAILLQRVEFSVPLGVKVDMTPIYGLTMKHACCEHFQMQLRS
The experiment in a line: Drug metabolism assessed as human recombinant CYP1A1-mediated 17-hydroexemestane formation rate per pmol of enzyme at 10 uM after 10 mins.

A further series deals with Cytochrome P450 3A5 (Homo sapiens, UniProt P20815). The experiment in a line: Drug metabolism assessed as human recombinant CYP3A5-mediated 17-hydroexemestane formation rate per pmol of enzyme at 10 uM after 10 mins.
Chain of Cytochrome P450 3A5 (P20815 whole entry): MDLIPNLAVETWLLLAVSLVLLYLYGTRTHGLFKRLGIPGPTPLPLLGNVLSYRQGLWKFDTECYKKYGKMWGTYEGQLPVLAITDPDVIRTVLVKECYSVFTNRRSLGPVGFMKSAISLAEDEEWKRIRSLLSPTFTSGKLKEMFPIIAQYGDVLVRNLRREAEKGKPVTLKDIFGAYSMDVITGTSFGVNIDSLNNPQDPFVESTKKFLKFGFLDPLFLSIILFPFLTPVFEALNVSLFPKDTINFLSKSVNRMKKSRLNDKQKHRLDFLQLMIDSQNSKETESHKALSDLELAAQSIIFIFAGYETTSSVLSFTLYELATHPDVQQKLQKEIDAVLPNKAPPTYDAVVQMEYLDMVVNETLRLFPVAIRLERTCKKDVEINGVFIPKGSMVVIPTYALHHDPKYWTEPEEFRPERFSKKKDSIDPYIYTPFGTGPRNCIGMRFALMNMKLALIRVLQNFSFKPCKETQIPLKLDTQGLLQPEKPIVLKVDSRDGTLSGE
Series [2] addresses T1, Cytochrome P450 2B6. The experiment in a line: Drug metabolism assessed as human recombinant CYP2B6-mediated 17-hydroexemestane formation rate per pmol of enzyme at 10 uM after 10 mins.
Series [3] has as its system Liver microsome. The experiment in a line: Drug metabolism in human liver microsomes assessed as retention time treated with 300 uM of exemestane after 10 mins by HPLC with UV analysis. Background: Liver microsomes are vesicles of endoplasmic reticulum, rich in cytochrome P450 enzymes.
The test system of series [4] is Liver microsome. The experiment in a line: Drug metabolism in human liver microsomes assessed as 17-hydroexemestane formation after 10 mins by Michaelis-Menten saturation curve analysis.
Series [5] relates to Liver microsome. The experiment in a line: Drug metabolism in human liver microsomes assessed as 17-hydroexemestane formation at 10 uM after 10 mins by LC-MS/MS analysis.
The target of another series is T3, Aromatase (Homo sapiens, UniProt P11511).
T3 sequence (P11511 whole entry): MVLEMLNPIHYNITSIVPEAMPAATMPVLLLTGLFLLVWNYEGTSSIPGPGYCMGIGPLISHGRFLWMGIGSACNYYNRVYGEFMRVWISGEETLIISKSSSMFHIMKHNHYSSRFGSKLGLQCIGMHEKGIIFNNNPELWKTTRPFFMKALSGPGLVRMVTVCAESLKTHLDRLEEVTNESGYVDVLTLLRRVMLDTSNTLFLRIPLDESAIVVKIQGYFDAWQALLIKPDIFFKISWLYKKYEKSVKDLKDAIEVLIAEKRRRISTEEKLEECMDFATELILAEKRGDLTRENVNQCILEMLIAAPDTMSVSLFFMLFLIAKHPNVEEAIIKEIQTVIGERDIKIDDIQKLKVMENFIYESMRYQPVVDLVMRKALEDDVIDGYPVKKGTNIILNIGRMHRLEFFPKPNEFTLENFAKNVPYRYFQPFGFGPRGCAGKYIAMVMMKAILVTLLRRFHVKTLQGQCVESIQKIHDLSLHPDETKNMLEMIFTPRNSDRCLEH
The experiment in a line: Drug metabolism assessed as human recombinant CYP19-mediated 17-hydroexemestane formation at 10 uM after 10 mins by Michaelis-Menten saturation curve analysis. The following applies: recombinant enzyme.

The next series has as its target T4, Cytochrome P450 1A2 (Homo sapiens, UniProt P05177).
T4 sequence (P05177 whole entry): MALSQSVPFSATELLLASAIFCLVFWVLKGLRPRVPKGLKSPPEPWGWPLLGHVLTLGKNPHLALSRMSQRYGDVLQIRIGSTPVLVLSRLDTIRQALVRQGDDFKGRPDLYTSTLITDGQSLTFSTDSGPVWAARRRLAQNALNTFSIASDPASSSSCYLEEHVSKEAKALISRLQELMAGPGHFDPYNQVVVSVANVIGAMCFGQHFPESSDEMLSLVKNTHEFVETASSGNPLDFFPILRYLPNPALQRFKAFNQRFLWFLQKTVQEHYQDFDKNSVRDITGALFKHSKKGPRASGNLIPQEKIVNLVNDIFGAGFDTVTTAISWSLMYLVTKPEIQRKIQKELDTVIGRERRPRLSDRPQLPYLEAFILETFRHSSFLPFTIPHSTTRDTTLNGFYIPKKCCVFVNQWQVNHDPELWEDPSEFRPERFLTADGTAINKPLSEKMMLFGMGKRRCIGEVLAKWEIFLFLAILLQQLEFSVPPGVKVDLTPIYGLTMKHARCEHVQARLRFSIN
The experiment in a line: Drug metabolism assessed as human recombinant CYP1A2-mediated 17-hydroexemestane formation at 10 uM after 10 mins by Michaelis-Menten saturation curve analysis. The following applies: recombinant enzyme.

The structures appear in SMILES notation.

One may read the Km as the substrate concentration at which the rate is half of its maximum.

Consider `C=C1C[C@@H]2[C@H](CC[C@]3(C)C(O)CC[C@@H]23)[C@@]2(C)C=CC(=O)C=C12` (stereo partly specified), for which the “Vmax(app)” value at Cytochrome P450 2B6 [1] is 3.9 pmol/mg/min; in the series on Liver microsome [4] it was 222.4 pmol/mg/min; in the series with Liver microsome [5] it was 137.32 pmol/mg/min. Also, the Km on Cytochrome P450 2B6 [1] (read-out: Km(app)) amounted to 177 µM; in the series on Liver microsome [4] (read-out: Km(app)) it was 13.7 µM. For the same compound, the Drug metabolism is listed as 1.09 pmol/min on Cytochrome P450 1A1; 0.21 pmol/min on Cytochrome P450 3A5; 0.3 pmol/min on Cytochrome P450 2B6 [2]; “metabolite_detected” at Aromatase; “metabolite_detected” at Cytochrome P450 1A2. Besides, the Retention_time with Liver microsome [3] worked out at 13.1 min.
